Reference: ChEMBL document CHEMBL1133079, “Synthesis and antibacterial activity of novel 6-O-substituted erythromycin A derivatives” (2000)
Values after ≈ are worked out from the molar mass of the structure shown.

Tests used:
Format in all cases: functional
[1] = test system: Streptococcus pyogenes; experiment: In vitro minimum inhibitory concentration against Streptococcus pyogenes PIU 2548 using standard agar dilution method
[2] = test system: Staphylococcus aureus; experiment: In vitro minimum inhibitory concentration against Staphylococcus aureus 6538P using standard agar dilution method
[3] = test system: Streptococcus pyogenes; experiment: In vitro minimum inhibitory concentration against Streptococcus pyogenes EES61 using standard agar dilution method
[4] = test system: Staphylococcus aureus; experiment: In vitro minimum inhibitory concentration against Staphylococcus aureus A5177.
[5] = test system: Streptococcus pneumoniae; experiment: In vitro minimum inhibitory concentration against Streptococcus pneumoniae 5737.
[6] = test system: Streptococcus pyogenes; experiment: In vitro minimum inhibitory concentration against Streptococcus pyogenes 930 using standard agar dilution method
[7] = test system: Streptococcus pneumoniae; experiment: In vitro minimum inhibitory concentration against Streptococcus pneumoniae 5649.
[8] = test system: Haemophilus influenzae; experiment: In vitro minimum inhibitory concentration against Haemophilus influenzae DILL using standard agar dilution method
[9] = test system: Streptococcus pneumoniae; experiment: In vitro minimum inhibitory concentration against Streptococcus pneumoniae ATCC 6303.

SMILES	MIC [1] [µg/mL]	MIC [2] [µg/mL]	MIC [3] [µg/mL]	MIC [4] [µg/mL]	MIC [5] [µg/mL]	MIC [6] [µg/mL]	MIC [7] [µg/mL]	MIC [8] [µg/mL]	MIC [9] [µg/mL]
CC[C@H]1OC(=O)[C@H](C)[C@@H](O[C@H]2C[C@@](C)(OC)[C@@H](O)[C@H](C)O2)[C@H](C)[C@@H](O[C@@H]2O[C@H](C)C[C@H](N(C)C)[C@H]2O)[C@@](C)(OCc2ccccc2)C[C@@H](C)C(=O)[C@H](C)[C@@H](O)[C@]1(C)O	16 (≈ 19.4 µM)	1.56 (≈ 1.89 µM)	0.06 (≈ 0.0728 µM)	12.5 (≈ 15.2 µM)	64 (≈ 77.7 µM)	> 128	16 (≈ 19.4 µM)		
CC[C@H]1OC(=O)[C@H](C)[C@@H](O[C@H]2C[C@@](C)(OC)[C@@H](O)[C@H](C)O2)[C@H](C)[C@@H](O[C@@H]2O[C@H](C)C[C@H](N(C)C)[C@H]2O)[C@](C)(OC)C[C@@H](C)C(=O)[C@H](C)[C@@H](O)[C@]1(C)O [CLARITHROMYCIN]	32 (≈ 42.8 µM)	0.2 (≈ 0.267 µM)	0.03 (≈ 0.0401 µM)	6.2 (≈ 8.29 µM)	> 128	> 128	16 (≈ 21.4 µM)	8 (≈ 10.7 µM)	0.06 (≈ 0.0802 µM)
CC[C@H]1OC(=O)[C@H](C)[C@@H](O[C@H]2C[C@@](C)(OC)[C@@H](O)[C@H](C)O2)[C@H](C)[C@@H](O[C@@H]2O[C@H](C)C[C@H](N(C)C)[C@H]2O)[C@@](C)(OCC(O)CNCc2ccccc2)C[C@@H](C)C(=O)[C@H](C)[C@@H](O)[C@]1(C)O (some centres undefined)		0.39 (≈ 0.435 µM)	0.125 (≈ 0.139 µM)	6.2 (≈ 6.91 µM)	> 128		64 (≈ 71.3 µM)	8 (≈ 8.92 µM)	0.125 (≈ 0.139 µM)
CC[C@H]1OC(=O)[C@H](C)[C@@H](O[C@H]2C[C@@](C)(OC)[C@@H](O)[C@H](C)O2)[C@H](C)[C@@H](O[C@@H]2O[C@H](C)C[C@H](N(C)C)[C@H]2O)[C@@](C)(OCCNCc2ccccc2)C[C@@H](C)C(=O)[C@H](C)[C@@H](O)[C@]1(C)O	64 (≈ 73.8 µM)	0.78 (≈ 0.9 µM)	0.25 (≈ 0.288 µM)	12.5 (≈ 14.4 µM)	> 128	> 128	32 (≈ 36.9 µM)	8 (≈ 9.23 µM)	0.125 (≈ 0.144 µM)
CC[C@H]1OC(=O)[C@H](C)[C@@H](O[C@H]2C[C@@](C)(OC)[C@@H](O)[C@H](C)O2)[C@H](C)[C@@H](O[C@@H]2O[C@H](C)C[C@H](N(C)C)[C@H]2O)[C@@](C)(OCCNCCc2ccccc2)C[C@@H](C)C(=O)[C@H](C)[C@@H](O)[C@]1(C)O	8 (≈ 9.08 µM)	0.2 (≈ 0.227 µM)	0.015 (≈ 0.017 µM)	12.5 (≈ 14.2 µM)	64 (≈ 72.6 µM)	64 (≈ 72.6 µM)	4 (≈ 4.54 µM)	2 (≈ 2.27 µM)	0.03 (≈ 0.034 µM)
CC[C@H]1OC(=O)[C@H](C)[C@@H](O[C@H]2C[C@@](C)(OC)[C@@H](O)[C@H](C)O2)[C@H](C)[C@@H](O[C@@H]2O[C@H](C)C[C@H](N(C)C)[C@H]2O)[C@@](C)(OCCNCCCc2ccccc2)C[C@@H](C)C(=O)[C@H](C)[C@@H](O)[C@]1(C)O	32 (≈ 35.7 µM)	0.05 (≈ 0.0559 µM)	0.03 (≈ 0.0335 µM)	3.1 (≈ 3.46 µM)	> 128	> 128	16 (≈ 17.9 µM)	4 (≈ 4.47 µM)	0.03 (≈ 0.0335 µM)
CC[C@H]1OC(=O)[C@H](C)[C@@H](O[C@H]2C[C@@](C)(OC)[C@@H](O)[C@H](C)O2)[C@H](C)[C@@H](O[C@@H]2O[C@H](C)C[C@H](N(C)C)[C@H]2O)[C@@](C)(OCc2ccc(F)cc2)C[C@@H](C)C(=O)[C@H](C)[C@@H](O)[C@]1(C)O	8 (≈ 9.5 µM)	3.1 (≈ 3.68 µM)	1 (≈ 1.19 µM)	12.5 (≈ 14.8 µM)	8 (≈ 9.5 µM)	8 (≈ 9.5 µM)	8 (≈ 9.5 µM)	64 (≈ 76 µM)	1 (≈ 1.19 µM)
CC[C@H]1OC(=O)[C@H](C)[C@@H](O[C@H]2C[C@@](C)(OC)[C@@H](O)[C@H](C)O2)[C@H](C)[C@@H](O[C@@H]2O[C@H](C)C[C@H](N(C)C)[C@H]2O)[C@@](C)(OCC=O)C[C@@H](C)C(=O)[C@H](C)[C@@H](O)[C@]1(C)O	128 (≈ 165 µM)	0.78 (≈ 1.01 µM)	0.06 (≈ 0.0773 µM)	25 (≈ 32.2 µM)	> 128	> 128	64 (≈ 82.5 µM)	8 (≈ 10.3 µM)	0.5 (≈ 0.644 µM)
CC[C@H]1OC(=O)[C@H](C)[C@@H](O[C@H]2C[C@@](C)(OC)[C@@H](O)[C@H](C)O2)[C@H](C)[C@@H](O[C@@H]2O[C@H](C)C[C@H](N(C)C)[C@H]2O)[C@](C)(O)C[C@@H](C)C(=O)[C@H](C)[C@@H](O)[C@]1(C)O [ERYTHROMYCIN]	32 (≈ 43.6 µM)	0.2 (≈ 0.273 µM)	0.03 (≈ 0.0409 µM)	6.2 (≈ 8.45 µM)	> 128	> 128	16 (≈ 21.8 µM)	4 (≈ 5.45 µM)	0.06 (≈ 0.0818 µM)
CC[C@H]1OC(=O)[C@H](C)[C@@H](O[C@H]2C[C@@](C)(OC)[C@@H](O)[C@H](C)O2)[C@H](C)[C@@H](O[C@@H]2O[C@H](C)C[C@H](N(C)C)[C@H]2O)[C@@](C)(OCC2CO2)C[C@@H](C)C(=O)[C@H](C)[C@@H](O)[C@]1(C)O (some centres undefined)	> 128	25 (≈ 31.6 µM)	4 (≈ 5.06 µM)	25 (≈ 31.6 µM)		> 128		> 128	
CC[C@H]1OC(=O)[C@H](C)[C@@H](O[C@H]2C[C@@](C)(OC)[C@@H](O)[C@H](C)O2)[C@H](C)[C@@H](O[C@@H]2O[C@H](C)C[C@H](N(C)C)[C@H]2O)[C@@](C)(OCC(C)=O)C[C@@H](C)C(=O)[C@H](C)[C@@H](O)[C@]1(C)O	128 (≈ 162 µM)	3.1 (≈ 3.92 µM)				> 128			
C#CCO[C@@]1(C)C[C@@H](C)C(=O)[C@H](C)[C@@H](O)[C@](C)(O)[C@@H](CC)OC(=O)[C@H](C)[C@@H](O[C@H]2C[C@@](C)(OC)[C@@H](O)[C@H](C)O2)[C@H](C)[C@H]1O[C@@H]1O[C@H](C)C[C@H](N(C)C)[C@H]1O		0.2 (≈ 0.259 µM)	0.03 (≈ 0.0389 µM)	12.5 (≈ 16.2 µM)	> 128	> 128	16 (≈ 20.7 µM)	16 (≈ 20.7 µM)	0.06 (≈ 0.0777 µM)
CC[C@H]1OC(=O)[C@H](C)[C@@H](O[C@H]2C[C@@](C)(OC)[C@@H](O)[C@H](C)O2)[C@H](C)[C@@H](O[C@@H]2O[C@H](C)C[C@H](N(C)C)[C@H]2O)[C@@](C)(OCC#N)C[C@@H](C)C(=O)[C@H](C)[C@@H](O)[C@]1(C)O	32 (≈ 41.4 µM)	0.2 (≈ 0.259 µM)	0.03 (≈ 0.0388 µM)		> 128	> 128	16 (≈ 20.7 µM)	8 (≈ 10.3 µM)	0.06 (≈ 0.0776 µM)
CC[C@H]1OC(=O)[C@H](C)[C@@H](O[C@H]2C[C@@](C)(OC)[C@@H](O)[C@H](C)O2)[C@H](C)[C@@H](O[C@@H]2O[C@H](C)C[C@H](N(C)C)[C@H]2O)[C@@](C)(OC/C=N/O)C[C@@H](C)C(=O)[C@H](C)[C@@H](O)[C@]1(C)O	64 (≈ 80.9 µM)	0.2 (≈ 0.253 µM)	0.015 (≈ 0.019 µM)		> 128		32 (≈ 40.5 µM)	16 (≈ 20.2 µM)	0.06 (≈ 0.0759 µM)
C=CCO[C@@]1(C)C[C@@H](C)C(=O)[C@H](C)[C@@H](O)[C@](C)(O)[C@@H](CC)OC(=O)[C@H](C)[C@@H](O[C@H]2C[C@@](C)(OC)[C@@H](O)[C@H](C)O2)[C@H](C)[C@H]1O[C@@H]1O[C@H](C)C[C@H](N(C)C)[C@H]1O	64 (≈ 82.7 µM)	0.78 (≈ 1.01 µM)		12.5 (≈ 16.1 µM)		> 128		32 (≈ 41.3 µM)	
